Among the data in patent publication US20090022675A1, “ESTERS WITH WARMING PROPERTIES” (priority 2007, published 2009) are maximum temperature rise values, retold here.

This data set in a line: Warming properties: rise in temperature on mixing with water (heat of solution). Type of data set: physicochemical. Particulars: mixed with water; Hest G-18-O maximum when about 60% by weight is used. From the text: When Hest G-18-O is mixed with water at ambient temperature, there is a rise in temperature. The rise in temperature ranges from about 5 degrees C. to about 15 degrees C.; it also ranges from about 8 degrees C. to about 12 degrees C. This rise in temperature is about 2-3 times more than that obtained with the same weight of glycerine (FIG. 1) or propylene glycol. The temperature rise reaches a maximum of about 12 degrees C. when about 60% by weight of Hest G-18-O is used. This compares to a maximum of only about 5 degrees C. for glycerine or propylene glycol.
The maximum amount of heat (though not the greatest rise in temperature) is obtained when the Hest G-18-O is dissolved in a large excess of water. If the Hest G-18-O, glycerine or propylene glycol is not anhydrous, some of its heat of solution will already have been dissipated. Correspondingly, smaller amounts of heat will be produced by further dilution.

Each structure is given as a SMILES string.

Take `OCC(O)CO` [glycerine]: the maximum temperature rise entry is recorded as “about 5 degrees C”.
As for `CC(O)CO` (centres unmarked) [propylene glycol], the entry is “about 5 degrees C”.
